The record followed here is ChEMBL document CHEMBL3352748, “Lead optimization of imidazopyrazines: a new class of antimalarial with activity on Plasmodium liver stages” (ACS Med Chem Lett, 2014).

In general, IC50 refers to the midpoint of a concentration-inhibition curve. Higher therefore signals weaker potency. As a reminder, the half-life is the time in which the quantity being followed falls by half. High values mean slow decline, low ones rapid decline. Usually thermodynamic solubility stands for solubility found after equilibrating the solid with the medium. By Cmax is commonly meant the maximum level reached in the sampled fluid or tissue. What is called AUC is the area under the concentration-time curve, a measure of exposure. The low end stands for less exposure, the high end for more exposure. In general, bioavailability refers to the share of a dose that reaches the circulation, judged against a reference dose that is usually intravenous. As usually defined, the Tmax is the time from dosing to the highest level. Broadly, the clearance is the rate of elimination divided by the concentration. Low readings indicate a low capacity for elimination, high ones a high capacity for elimination.

Values after ≈ are worked out from the molar mass of the structure shown.

The test system of series [1] is Plasmodium yoelii. Put plainly: Antiplasmodial activity against blood stage schizont Plasmodium yoelii. It counts as functional, organism-based.
For series [2], the system named is Plasmodium falciparum. In words: Antiplasmodial activity against schizont blood stage Plasmodium falciparum. It counts as functional, organism-based.
The test system of series [3] is Plasmodium cynomolgi. Put plainly: Antiplasmodial activity against hypnozoite liver stage Plasmodium cynomolgi. Type of series: functional, organism-based.
The nature of series [4]: Half life in mouse liver microsomes by LC/MS analysis. It counts as ADME. (Liver microsomes are vesicles of endoplasmic reticulum, rich in cytochrome P450 enzymes.)
The nature of series [5]: Hepatic extraction ratio in mouse liver microsomes by LC/MS analysis. Conditions: read-out: ERH. It counts as ADME.
The nature of series [6]: Solubility of the compound at pH 6.8 by HT-equilibrium solubility assay. Type of series: physicochemical. Conditions: buffer.
In series [7] the test system is Plasmodium cynomolgi. In words: Antiplasmodial activity against schizont liver stage Plasmodium cynomolgi. It counts as functional, organism-based.
Series [8] is described as follows: Cmax in mouse at 20 mg/kg, po. The arrangement: dose 20 mg/kg, route oral. Type of series: ADME, organism-based. Conditions: in vivo.
The nature of series [9]: AUC in mouse at 20 mg/kg, po. Type of series: ADME, organism-based. The following applies: plasma. The arrangement: dose 20 mg/kg, route oral.
Series [10] in a line: Half life in mouse at 5 mg/kg, iv. It counts as ADME, organism-based. The arrangement: dose 5 mg/kg, route intravenous. The following applies: in vivo.
Series [11] in a line: Oral bioavailability in mouse at 20 mg/kg. The following applies: in vivo. It counts as ADME, organism-based.
Series [12] can be described thus: Tmax in mouse at 20 mg/kg, po. Type of series: ADME, organism-based. The arrangement: dose 20 mg/kg, route oral. The following applies: in vivo.
Series [13] can be described thus: Clearance in mouse at 5 mg/kg, iv. It counts as ADME, organism-based. Set-up: dose 5 mg/kg, route intravenous. Conditions: in vivo.
Series [14] is described as follows: Half life in mouse at 20 mg/kg, po. It counts as ADME, organism-based. The arrangement: dose 20 mg/kg, route oral. Conditions: in vivo.
The nature of series [15]: Volume of distribution at steady state in mouse at 5 mg/kg, iv. It counts as ADME, organism-based. Set-up: dose 5 mg/kg, route intravenous. The following applies: in vivo, read-out: Vdss.
Series [16] concerns Plasmodium berghei. In words: Antimalarial activity against Plasmodium berghei infected in mouse assessed as animal protection at 30 mg/kg, po by causal prophylactic activity assay relative to untreated control. It counts as functional.

As to `CN(C(=O)c1ccc2ncc(-c3ccc(C#N)cc3)n2c1)c1ccccc1`, the IC50 was greater than 10 µM in series [1], 0.6 µM in series [2] and greater than 10 µM in [3].

For `CN(C(=O)c1ccc2ncc(-c3ccc(C(F)(F)F)cc3)n2c1)c1ccc(C#N)cc1`, the figures for the half-maximal inhibitory concentration (IC50) in series [1], in series [2] and in [3] were 5.4 µM, 0.011 µM and greater than 10 µM, respectively.

As to `CN(C(=O)c1cn2c(-c3ccc(C(F)(F)F)cc3)cnc2cn1)c1ccc(C#N)cc1`, in series [4], the half-life is 1.37 h. The IC50 in series [1] came to 0.16 µM; in [2], 0.063 µM; in series [3], 0.81 µM; in series [7], 0.12 µM. Further, the hepatic extraction ratio in series [5] was 0.4. The same molecule yielded a solubility (thermodynamic) in series [6] of 9 µM (≈ 3.79 µg/mL).

On to `CN(C(=O)c1cn2c(-c3ccc(C(F)(F)F)cc3)cnc2cn1)c1ccc(Cl)nc1`, for which the IC50 in series [1] turned out to be 0.2 µM; in series [2], 0.275 µM.

Turning to `CN(C(=O)c1cn2c(-c3ccc(C(F)(F)F)cc3)cnc2cn1)c1ccc(C#N)nc1`, the figures for the IC50 in series [1] and in [2] were 3.63 µM and 1.63 µM, respectively.

For the molecule `Cc1ccc(N(C)C(=O)c2cn3c(-c4ccc(C(F)(F)F)cc4)cnc3cn2)nn1`, the IC50 in [1] and in [2] was greater than 10 µM each time.

Take `CN(C(=O)c1cn2c(-c3ccc(C(F)(F)F)cc3)cnc2cn1)c1nc2ccccc2s1`: the IC50 in series [1] was greater than 10 µM; in series [2], 9.58 µM.

With `CN(Cc1ccc(F)cc1)C(=O)c1cn2c(-c3ccc(C(F)(F)F)cc3)cnc2cn1`, the 50% inhibitory concentration (IC50) in series [1] and in series [2] was greater than 10 µM each time.

`CN1CCC(N(C)C(=O)c2cn3c(-c4ccc(C(F)(F)F)cc4)cnc3cn2)CC1`: the IC50 in series [1] and in series [2] was greater than 10 µM in each case.

As to `CN(C(=O)c1cn2c(-c3ccc(-c4ccn[nH]4)cc3)cnc2cn1)c1ccc(C#N)cc1`, the IC50 in [1] came to 0.046 µM; in series [2], 0.032 µM; in series [3], 0.3 µM; in [7] it was 0.3 µM.

For `CN(C(=O)c1cn2c(-c3ccc(-c4nnc(N)s4)cc3)cnc2cn1)c1ccc(C#N)cc1`, the IC50 in [1] amounted to 0.019 µM; in series [2], 0.022 µM; in [3], 0.06 µM; in series [7], 0.04 µM. In [8], this molecule yielded a Cmax of 0.02 µM. In [9], this molecule returned an AUC of 0.12 µM·h. The half-life in [10] is 2.12 h; in [14] it was 3.39 h. In series [11], this molecule yielded a bioavailability of 0.24%. The Tmax in series [12] was 1.7 h. Also, the clearance in [13] amounted to 16.2 mL/min/kg. Also, the solubility (thermodynamic) in [6] was less than 5 µM. For the same molecule, the Vd in series [15] was found to be 0.99 L/kg.

For the molecule `CN(C(=O)c1cn2c(-c3ccc(C(N)=O)cc3)cnc2cn1)c1ccc(F)cc1`, the half-life is 0.95 h in series [4], 0.62 h in [10] and 1.35 h in series [14]. Further, the IC50 in [1] amounted to 0.062 µM; in [2], 0.056 µM; in [3], 0.26 µM; in [7], 0.19 µM. In series [8], this molecule had a maximum concentration (Cmax) of 8.3 µM. For the same molecule, the AUC in [9] is 11.1 µM·h. In addition, the bioavailability in [11] turned out to be 51.6%. Also, the Tmax in series [12] came to 0.5 h. This molecule also came in with a clearance in series [13] of 39.7 mL/min/kg. Also, the Activity in series [16] is recorded as 80%. Besides, the hepatic extraction ratio in series [5] came to 0.52. This molecule returned a solubility (thermodynamic) in [6] of 170 µM (≈ 66.2 µg/mL). Moreover, the Vd in [15] is 0.9 L/kg.

In the case of `CNC(=O)c1ccc(-c2cnc3cnc(C(=O)N(C)c4ccc(C#N)cc4)cn23)cc1`, the figures for the half-life in series [4], in series [10] and in series [14] were 2.08 h, 0.42 h and 1.63 h, respectively. In addition, the IC50 in [1] was 0.29 µM; in series [2], 0.131 µM; in series [3], 0.094 µM; in [7], 0.081 µM. For the same molecule, in series [8], the concentration peaked (Cmax) at 5.2 µM. Also, in [9], the AUC came out at 12.4 µM·h. In series [11], this molecule gave a bioavailability of 51.9%. For the same molecule, the Tmax in series [12] turned out to be 0.5 h. For the same molecule, the clearance in [13] was 34 mL/min/kg. In addition, the Activity in series [16] is given as 80%. Also, the hepatic extraction ratio in series [5] was 0.33. In addition, in [6], the thermodynamic solubility was determined as 430 µM (≈ 176 µg/mL). Besides, the Vd in series [15] is 1.02 L/kg.

Turning to `CNC(=O)c1ccc(-c2cnc3cnc(C(=O)N(C)c4ccc(Cl)cc4)cn23)cc1`, the half-life is 1.05 h in series [4], 0.83 h in series [10] and 3.63 h in [14]. For the same molecule, the IC50 in series [1] turned out to be 0.036 µM; in series [2], 0.058 µM; in [3] it was 0.196 µM; in [7], 0.105 µM. The Cmax in [8] is 20.5 µM. Also, the AUC in series [9] came out at 31.2 µM·h. The same molecule returned a bioavailability in series [11] of 60%. Moreover, the Tmax in series [12] came to 0.5 h. The same molecule gave a clearance in series [13] of 19.3 mL/min/kg. In addition, the hepatic extraction ratio in [5] worked out at 0.49. In addition, the thermodynamic solubility in [6] came out at 820 µM (≈ 344 µg/mL). For the same molecule, the Vd in series [15] was 0.96 L/kg.
